In ChEMBL document CHEMBL1201862, “PubChem BioAssay data set” (2004):
The source made the active and inactive calls.

What was measured:
[1] = target: T1, Tyrosine-protein phosphatase non-receptor type 7 (Homo sapiens, UniProt P35236); assay type: functional
T1 sequence (P35236 whole entry): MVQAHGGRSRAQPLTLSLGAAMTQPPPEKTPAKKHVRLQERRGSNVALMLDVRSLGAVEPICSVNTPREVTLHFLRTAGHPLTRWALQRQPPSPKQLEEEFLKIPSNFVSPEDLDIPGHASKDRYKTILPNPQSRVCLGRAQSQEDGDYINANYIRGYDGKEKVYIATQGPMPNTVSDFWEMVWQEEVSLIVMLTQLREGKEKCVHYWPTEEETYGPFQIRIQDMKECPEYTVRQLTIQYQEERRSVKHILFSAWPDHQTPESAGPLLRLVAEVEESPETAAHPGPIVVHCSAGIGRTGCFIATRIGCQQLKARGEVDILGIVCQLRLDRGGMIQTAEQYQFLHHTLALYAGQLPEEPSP

[2] = target: T2, Tyrosine-protein phosphatase non-receptor type 22 (Homo sapiens, UniProt Q9Y2R2); assay type: functional
T2 sequence (Q9Y2R2 whole entry): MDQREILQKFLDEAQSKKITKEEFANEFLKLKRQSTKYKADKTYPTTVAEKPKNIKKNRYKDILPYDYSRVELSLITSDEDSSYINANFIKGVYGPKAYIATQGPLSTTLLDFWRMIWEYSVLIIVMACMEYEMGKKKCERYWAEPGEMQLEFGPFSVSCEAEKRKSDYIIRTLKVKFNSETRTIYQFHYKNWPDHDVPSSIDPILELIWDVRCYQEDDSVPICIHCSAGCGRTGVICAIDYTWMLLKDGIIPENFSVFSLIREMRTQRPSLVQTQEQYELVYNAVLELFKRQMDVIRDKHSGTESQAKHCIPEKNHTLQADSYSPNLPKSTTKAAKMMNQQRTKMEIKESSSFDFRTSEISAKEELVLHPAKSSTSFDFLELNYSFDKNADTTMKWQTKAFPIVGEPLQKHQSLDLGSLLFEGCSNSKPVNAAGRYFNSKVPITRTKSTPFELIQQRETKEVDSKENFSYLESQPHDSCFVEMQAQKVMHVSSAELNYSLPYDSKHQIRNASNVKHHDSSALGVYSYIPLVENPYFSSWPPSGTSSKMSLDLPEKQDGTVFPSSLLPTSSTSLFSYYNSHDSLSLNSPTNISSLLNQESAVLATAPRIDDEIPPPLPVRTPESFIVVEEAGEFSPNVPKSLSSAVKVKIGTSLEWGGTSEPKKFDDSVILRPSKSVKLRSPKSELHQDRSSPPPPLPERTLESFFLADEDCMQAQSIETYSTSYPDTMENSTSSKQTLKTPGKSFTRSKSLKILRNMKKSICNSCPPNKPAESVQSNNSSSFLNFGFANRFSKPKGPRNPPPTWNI

[3] = target: T2, Tyrosine-protein phosphatase non-receptor type 22; assay type: functional; remark: listed apart in the source
Cytochrome P450 2D6 = Cytochrome P450 2D6 (Homo sapiens, UniProt P10635);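 further: CYP2D6 member of a cytochrome P450 panel assay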
Cytochrome P450 2C19 = Cytochrome P450 2C19 (Homo sapiens, UniProt P33261); test: Cytochrome panel assay with activity outcomes. Panel member name: p450-cyp2c19 Compounds with AC50 equal or less than 10 uM are considered active; assay type: functional
[4] = NIH-3T3 fibroblast cytotoxicity, dose response, cytotoxicity control, cell-based, fluorescence, Alamar Blue, secondary assay (AID 2327); assay type: functional;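 further: NIH-3T3 mouse fibroblasts cultured with fluconazole at 8 µg/mL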
[5] = target: T3, Histone-lysine N-methyltransferase NSD2 (Homo sapiens, UniProt O96028); assay type: biochemical
T3 sequence (O96028 whole entry): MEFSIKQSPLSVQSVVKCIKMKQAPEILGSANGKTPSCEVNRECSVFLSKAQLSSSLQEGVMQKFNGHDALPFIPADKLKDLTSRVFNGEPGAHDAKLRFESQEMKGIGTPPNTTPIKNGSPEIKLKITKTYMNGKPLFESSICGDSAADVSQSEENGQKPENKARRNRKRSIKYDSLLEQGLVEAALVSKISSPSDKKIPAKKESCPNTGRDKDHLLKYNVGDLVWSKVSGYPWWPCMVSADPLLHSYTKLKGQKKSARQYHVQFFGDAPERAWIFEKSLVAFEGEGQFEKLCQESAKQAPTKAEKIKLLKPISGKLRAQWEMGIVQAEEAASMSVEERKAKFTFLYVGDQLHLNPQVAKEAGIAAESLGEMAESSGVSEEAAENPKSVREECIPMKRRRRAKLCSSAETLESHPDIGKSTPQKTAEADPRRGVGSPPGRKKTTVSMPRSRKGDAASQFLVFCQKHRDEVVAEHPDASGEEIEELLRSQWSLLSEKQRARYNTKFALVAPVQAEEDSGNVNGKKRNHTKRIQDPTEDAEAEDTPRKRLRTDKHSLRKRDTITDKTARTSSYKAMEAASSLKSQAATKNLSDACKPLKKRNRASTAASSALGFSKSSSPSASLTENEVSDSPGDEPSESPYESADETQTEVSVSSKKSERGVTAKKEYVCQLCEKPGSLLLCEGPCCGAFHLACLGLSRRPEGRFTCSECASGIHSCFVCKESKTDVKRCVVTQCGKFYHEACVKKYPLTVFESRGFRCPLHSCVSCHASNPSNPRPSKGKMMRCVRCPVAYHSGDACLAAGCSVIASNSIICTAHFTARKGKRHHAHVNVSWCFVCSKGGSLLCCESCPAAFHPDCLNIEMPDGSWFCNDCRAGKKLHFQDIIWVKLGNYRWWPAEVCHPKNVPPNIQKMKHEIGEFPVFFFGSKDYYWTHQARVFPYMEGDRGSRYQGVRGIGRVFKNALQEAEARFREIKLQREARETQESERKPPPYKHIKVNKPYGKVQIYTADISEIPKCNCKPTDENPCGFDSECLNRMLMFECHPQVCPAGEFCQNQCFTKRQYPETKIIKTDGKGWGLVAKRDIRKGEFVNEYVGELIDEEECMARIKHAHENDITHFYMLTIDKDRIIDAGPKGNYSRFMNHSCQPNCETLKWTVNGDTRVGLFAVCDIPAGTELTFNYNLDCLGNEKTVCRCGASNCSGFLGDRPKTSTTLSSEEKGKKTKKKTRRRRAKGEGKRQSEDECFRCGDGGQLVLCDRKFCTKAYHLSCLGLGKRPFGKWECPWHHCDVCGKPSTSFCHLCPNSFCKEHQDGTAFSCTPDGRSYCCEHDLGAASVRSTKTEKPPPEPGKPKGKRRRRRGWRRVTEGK

[6] = C. albicans growth with fluconazole, confirmation, fluorescence, retest (AID 2467); assay type: functional, cell-based
[7] = target: Intestinal-type alkaline phosphatase (Homo sapiens, UniProt P09923); test: activation of human intestinal alkaline phosphatase – biochemical, dose response (AID 488873); assay type: functional
[8] = target: T4, Alkaline phosphatase, tissue-nonspecific isozyme (Homo sapiens, UniProt P05186); test: TNAP enzyme activators, dose response, selectivity assay for mouse IAP activator project, biochemical, TNAP isozyme, mouse IAP uHTS hits (AID 488880); assay type: functional
T4 sequence (P05186 whole entry): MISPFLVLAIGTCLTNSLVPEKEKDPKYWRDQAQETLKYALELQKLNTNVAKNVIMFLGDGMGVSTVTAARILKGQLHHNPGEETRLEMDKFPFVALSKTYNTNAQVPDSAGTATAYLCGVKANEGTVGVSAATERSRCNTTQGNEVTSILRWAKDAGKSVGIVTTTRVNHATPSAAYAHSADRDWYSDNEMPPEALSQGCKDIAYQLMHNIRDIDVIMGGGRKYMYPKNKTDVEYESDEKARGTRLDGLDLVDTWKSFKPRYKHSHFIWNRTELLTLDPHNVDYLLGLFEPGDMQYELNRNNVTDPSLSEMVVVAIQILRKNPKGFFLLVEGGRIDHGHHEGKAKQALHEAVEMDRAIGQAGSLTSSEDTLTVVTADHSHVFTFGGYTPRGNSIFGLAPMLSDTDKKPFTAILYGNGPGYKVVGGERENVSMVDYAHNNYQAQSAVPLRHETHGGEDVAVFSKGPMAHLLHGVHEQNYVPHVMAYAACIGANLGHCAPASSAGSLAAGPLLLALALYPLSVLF

Caspase-6 = target: T5, Caspase-6 (Homo sapiens, UniProt P55212); test: human caspase-6 inhibitors, dose response, biochemical, VEID-R110 fluorescence, cherry-pick (AID 720632)
T5 sequence (P55212 whole entry): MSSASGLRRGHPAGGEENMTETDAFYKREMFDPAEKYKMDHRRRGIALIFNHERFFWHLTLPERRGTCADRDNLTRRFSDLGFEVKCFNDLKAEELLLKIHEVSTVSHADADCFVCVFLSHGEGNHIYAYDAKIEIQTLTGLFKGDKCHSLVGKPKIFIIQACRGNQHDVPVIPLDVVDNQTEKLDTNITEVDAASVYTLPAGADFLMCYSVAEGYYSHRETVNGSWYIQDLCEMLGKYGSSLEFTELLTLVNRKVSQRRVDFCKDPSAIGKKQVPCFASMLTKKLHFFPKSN

[9] = target: Intestinal-type alkaline phosphatase (Mus musculus, UniProt P24822); test: mouse intestinal alkaline phosphatase activators, dose response, biochemical, luminescence, uHTS hits (AID 488783); assay type: functional
cells = assay type: functional
[10] = Vero E6 cell cytotoxicity, dose response, cytotoxicity control for non-replicating M. tuberculosis project, secondary assay (AID 492998); assay type: functional, VeroE6; conditions: Vero C1008
Streptococcus = test: Group A Streptococcus viability loss, dose response, counter-screen for streptokinase expression inhibitor project, luminescence, BacTiterGlo (AID 1915); assay type: functional, organism-based;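 further: potency for reduction of bacterial viability or growth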
[11] = THP-1 cell cytotoxicity, dose response, cytotoxicity control for non-replicating M. tuberculosis project (AID 489025); assay type: functional
[12] = system: Streptococcus sp. 'group A'; test: growth inhibition of control SK(-) GAS strain, dose response, counter-screen for streptokinase expression inhibitor project, luminescence, kanamycin, BacTiterGlo, confirmation (AID 1900); assay type: functional, organism-based
[13] = target: T6, Short transient receptor potential channel 4 (Mus musculus, UniProt Q9QUQ5); test: mouse TRPC4 channel activators, dose response, cell-based, HEK293 TRPC4/mu-opioid, Fluo-4 calcium (AID 434937); assay type: functional
T6 sequence (Q9QUQ5 whole entry): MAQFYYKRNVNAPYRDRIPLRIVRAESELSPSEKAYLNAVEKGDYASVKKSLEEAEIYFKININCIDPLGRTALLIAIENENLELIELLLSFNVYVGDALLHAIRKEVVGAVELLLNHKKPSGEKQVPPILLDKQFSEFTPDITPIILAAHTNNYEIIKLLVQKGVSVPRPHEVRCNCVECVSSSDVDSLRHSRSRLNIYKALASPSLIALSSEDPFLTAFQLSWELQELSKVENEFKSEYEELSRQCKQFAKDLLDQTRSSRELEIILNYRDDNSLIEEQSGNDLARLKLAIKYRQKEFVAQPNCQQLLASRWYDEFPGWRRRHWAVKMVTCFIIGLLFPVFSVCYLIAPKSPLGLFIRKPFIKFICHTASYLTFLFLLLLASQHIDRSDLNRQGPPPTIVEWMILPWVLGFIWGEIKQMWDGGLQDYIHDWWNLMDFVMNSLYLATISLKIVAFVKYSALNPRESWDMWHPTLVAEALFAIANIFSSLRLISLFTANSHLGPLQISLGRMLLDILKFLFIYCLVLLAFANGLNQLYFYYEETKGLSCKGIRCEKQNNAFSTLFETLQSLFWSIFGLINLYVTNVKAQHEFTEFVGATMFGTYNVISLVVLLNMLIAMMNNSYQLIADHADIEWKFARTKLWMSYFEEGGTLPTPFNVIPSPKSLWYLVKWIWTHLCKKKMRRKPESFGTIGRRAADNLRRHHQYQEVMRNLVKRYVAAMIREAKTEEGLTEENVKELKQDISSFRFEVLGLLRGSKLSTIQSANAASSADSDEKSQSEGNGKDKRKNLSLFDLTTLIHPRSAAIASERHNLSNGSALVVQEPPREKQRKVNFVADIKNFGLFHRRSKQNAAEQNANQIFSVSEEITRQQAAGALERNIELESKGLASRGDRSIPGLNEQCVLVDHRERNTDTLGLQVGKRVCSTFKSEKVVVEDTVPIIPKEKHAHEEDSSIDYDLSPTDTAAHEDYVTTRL

Sequence of Cytochrome P450 2D6 (P10635 whole entry): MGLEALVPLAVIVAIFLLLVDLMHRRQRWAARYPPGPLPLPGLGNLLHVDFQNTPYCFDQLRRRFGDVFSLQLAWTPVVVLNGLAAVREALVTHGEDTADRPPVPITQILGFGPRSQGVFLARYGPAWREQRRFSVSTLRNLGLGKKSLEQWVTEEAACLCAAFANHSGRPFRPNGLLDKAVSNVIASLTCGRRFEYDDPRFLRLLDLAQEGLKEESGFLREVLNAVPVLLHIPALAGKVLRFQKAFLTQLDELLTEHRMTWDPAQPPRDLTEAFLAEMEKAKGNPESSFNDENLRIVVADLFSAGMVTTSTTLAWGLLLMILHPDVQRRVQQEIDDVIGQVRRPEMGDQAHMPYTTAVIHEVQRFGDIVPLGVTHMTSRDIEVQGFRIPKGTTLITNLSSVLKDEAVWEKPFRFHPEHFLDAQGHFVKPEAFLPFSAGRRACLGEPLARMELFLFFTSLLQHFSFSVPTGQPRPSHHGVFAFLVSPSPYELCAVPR
Sequence of Cytochrome P450 2C19 (P33261 whole entry): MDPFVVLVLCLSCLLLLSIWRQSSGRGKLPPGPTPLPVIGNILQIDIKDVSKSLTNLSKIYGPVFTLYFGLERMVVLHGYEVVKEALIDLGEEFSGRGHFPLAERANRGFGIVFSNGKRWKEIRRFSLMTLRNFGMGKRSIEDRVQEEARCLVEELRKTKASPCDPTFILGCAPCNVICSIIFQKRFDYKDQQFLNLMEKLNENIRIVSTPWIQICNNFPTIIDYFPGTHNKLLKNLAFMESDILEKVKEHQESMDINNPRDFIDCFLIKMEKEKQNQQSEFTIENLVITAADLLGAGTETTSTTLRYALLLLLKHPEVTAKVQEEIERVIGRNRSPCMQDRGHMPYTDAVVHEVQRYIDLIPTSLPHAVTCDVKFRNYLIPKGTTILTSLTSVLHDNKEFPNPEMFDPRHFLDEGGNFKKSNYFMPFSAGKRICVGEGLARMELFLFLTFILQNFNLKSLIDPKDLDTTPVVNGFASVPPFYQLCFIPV
Sequence of Intestinal-type alkaline phosphatase (Mus musculus, UniProt P24822) (P24822 whole entry): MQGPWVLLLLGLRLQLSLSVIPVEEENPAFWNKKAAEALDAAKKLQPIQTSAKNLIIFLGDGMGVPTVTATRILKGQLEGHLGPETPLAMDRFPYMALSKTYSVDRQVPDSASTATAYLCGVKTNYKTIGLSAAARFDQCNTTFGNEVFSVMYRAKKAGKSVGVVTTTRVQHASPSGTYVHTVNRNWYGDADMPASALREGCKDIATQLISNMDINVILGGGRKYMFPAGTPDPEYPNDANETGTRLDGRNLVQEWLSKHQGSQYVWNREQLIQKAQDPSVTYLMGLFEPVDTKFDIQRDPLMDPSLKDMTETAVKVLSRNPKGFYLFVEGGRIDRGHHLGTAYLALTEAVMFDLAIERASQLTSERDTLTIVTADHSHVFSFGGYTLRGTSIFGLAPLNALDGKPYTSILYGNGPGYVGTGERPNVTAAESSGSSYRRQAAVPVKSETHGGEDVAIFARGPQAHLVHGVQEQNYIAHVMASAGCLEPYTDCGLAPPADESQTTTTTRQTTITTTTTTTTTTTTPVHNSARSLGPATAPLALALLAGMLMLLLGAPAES
Sequence of Intestinal-type alkaline phosphatase (Homo sapiens, UniProt P09923) (P09923 whole entry): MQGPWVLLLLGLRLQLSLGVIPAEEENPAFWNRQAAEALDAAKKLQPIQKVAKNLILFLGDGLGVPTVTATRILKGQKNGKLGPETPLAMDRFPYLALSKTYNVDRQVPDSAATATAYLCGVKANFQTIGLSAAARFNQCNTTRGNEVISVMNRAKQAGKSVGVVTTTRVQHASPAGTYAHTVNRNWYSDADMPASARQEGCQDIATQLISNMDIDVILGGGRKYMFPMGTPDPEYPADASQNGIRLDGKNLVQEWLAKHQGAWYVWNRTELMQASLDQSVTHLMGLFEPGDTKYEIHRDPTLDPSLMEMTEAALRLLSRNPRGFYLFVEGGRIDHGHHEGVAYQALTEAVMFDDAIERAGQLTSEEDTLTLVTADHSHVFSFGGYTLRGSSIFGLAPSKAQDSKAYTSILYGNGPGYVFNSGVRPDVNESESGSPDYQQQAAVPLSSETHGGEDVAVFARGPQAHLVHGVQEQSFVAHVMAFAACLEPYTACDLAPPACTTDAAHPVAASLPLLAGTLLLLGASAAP

CC(=O)Nc1ccc(SCC(=O)Nc2ccc(Cl)cn2)cc1
inactive: IC50 [1] > 79.4 µM | IC50 [2] > 79.4 µM | IC50 [3] > 79.4 µM

O=C(O)c1cc(/N=N\c2ccc([As](=O)(O)O)cc2)ccc1O
inconclusive: AC50 (Cytochrome P450 2D6) | AC50 (Cytochrome P450 2C19)

NNC(=O)c1cc(O)c(O)c(O)c1
active: EC50 [4] 41.7 µM | AC50 [5] 5.41 µM | EC50 [7] 82.6 µM | EC50 [8] 69.3 µM | AC50 (Caspase-6) 2.43 µM | EC50 [9] 8.04 µM
> 38 µM (not active): EC50 [6]

Cc1ccc(C(=O)NNC(=S)NC(=O)c2ccc(Cl)cc2)cc1
active: IC50 (cells) < 0.1 µM | CC50 [10] 17 µM | EC50 (Streptococcus) 3.71 µM | CC50 [11] 22.9 µM | EC50 [12] 0.182 µM | EC50 [13] 2.11 µM
inconclusive: AC50 (Cytochrome P450 2D6) | AC50 (Cytochrome P450 2C19; read-out: AC50) 35.5 µM

Cc1ccc(OCC(=O)N/N=C\c2ccco2)c(C)c1
inactive: IC50 [1] > 79.4 µM | IC50 [2] > 79.4 µM | IC50 [3] > 79.4 µM
